Where two headings read alike, the source gives them in different places.
Columns and labels:
[1] = system: iCell endothelial cells (human iPSC-derived ECs); test: High-content imaging cytotoxicity in iCell endothelial cells, 24 h; type: cell-based; conditions: Homo sapiens, Endothelial cell, endothelial cells (endo), 24 hr
Procedure, shortened: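 Readouts were vehicle-normalised and fitted to a four-parameter logistic model. POD was set at one SD beyond 0.5% DMSO control means, and 100 µM was assigned when no response was seen. Cells were monolayers of iCell endothelial cells imaged after 24 h compound exposure using nuclear, mitochondrial and calcein dyes.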

[2] = system: iPSC-CMs, iPSC-ECs and HUVECs phenotypes; test: ToxPi 2.0 integration of POD values and physicochemical descriptors; parameters: species or system human; conditions: ToxPi-scaled (0-1) score; for huvec.cyto.24hr / huvec.mito.24hr / huvec.mitoint.24hr / huvec.nma.24hr / huvec.tc.24hr / huvec.mtl.18hr / huvec.tlps.18hr / huvec.tta.18hr / huvec.ttl.18hr: HUVECs; for huvec.mtl.18hr / huvec.tlps.18hr / huvec.tta.18hr / huvec.ttl.18hr / endo.mtl.18hr / endo.tlps.18hr / endo.tta.18hr / endo.ttl.18hr: tube formation; for cm.amp.avg.90min / cm.amp.cv.90min / cm.bpm.90min / cm.cam.90min / cm.decay.rise.90min / cm.mii.90min / cm.mito.90min / cm.spacing.cv.90min / cm.tc.90min / cm.amp.avg.24hrs / cm.amp.cv.24hrs / cm.bpm.24hrs / cm.cam.24hrs / cm.decay.rise.24hrs / cm.mii.24hrs / cm.mito.24hrs / cm.spacing.cv.24hrs / cm.tc.24hrs: iPSC cardiomyocytes; for endo.cyto.24hr / endo.mito.24hr / endo.mitoint.24hr / endo.nma.24hr / endo.tc.24hr / endo.mtl.18hr / endo.tlps.18hr / endo.tta.18hr / endo.ttl.18hr: iPSC endothelial cells
Procedure, shortened: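 Phenotypic readouts in iPSC-cardiomyocytes, iPSC-endothelial cells and HUVECs were normalised to 0.5% DMSO vehicle and fitted to a four-parameter logistic model. POD set at one SD cutoff of vehicle means, with 100 μM assigned when no response. PODs and physicochemical descriptors combined in ToxPi 2.0 scores.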

[3] = cyto, read-out: POD endo.cyto.24hr
[4] = mito, read-out: POD endo.mito.24hr
[5] = mitoint, read-out: POD endo.mitoint.24hr
[6] = nma, read-out: POD endo.nma.24hr

Clc1ccc(Cl)c(-c2cc(Cl)ccc2Cl)c1 [PCB 52, 2,2′,5,5′-tetrachlorobiphenyl]
minimal effective concentration [1, 3]: 100 µM
minimal effective concentration [1, 4]: 100 µM
minimal effective concentration [1, 5]: 100 µM
minimal effective concentration [1, 6]: 100 µM
minimal effective concentration ([1]; tc, read-out: POD endo.tc.24hr): 100 µM
huvec.cyto.24hr [2]: 0.5178
huvec.mito.24hr [2]: 0.613
huvec.mitoint.24hr [2]: 0.5572
huvec.nma.24hr [2]: 0.3829
huvec.tc.24hr [2]: 0.5178
huvec.mtl.18hr [2]: 0
huvec.tlps.18hr [2]: 0
huvec.tta.18hr [2]: 0
huvec.ttl.18hr [2]: 0
cm.amp.avg.90min [2]: 0.5597
cm.amp.cv.90min [2]: 0.1687
cm.bpm.90min [2]: 0.3203
cm.cam.90min [2]: 0.422
cm.decay.rise.90min [2]: 0.1841
cm.mii.90min [2]: 0.8432
cm.mito.90min [2]: 0.3815
cm.spacing.cv.90min [2]: 0.1566
cm.tc.90min [2]: 0.3874
cm.amp.avg.24hrs [2]: 0.3455
cm.amp.cv.24hrs [2]: 0.4979
cm.bpm.24hrs [2]: 0.3481
cm.cam.24hrs [2]: 0.3478
cm.decay.rise.24hrs [2]: 0.2921
cm.mii.24hrs [2]: 0.2822
cm.mito.24hrs [2]: 0.5634
cm.spacing.cv.24hrs [2]: 0.2305
cm.tc.24hrs [2]: 0.578
endo.cyto.24hr [2]: 0
endo.mito.24hr [2]: 0
endo.mitoint.24hr [2]: 0
endo.nma.24hr [2]: 0
endo.tc.24hr [2]: 0
endo.mtl.18hr [2]: 0.02365
endo.tlps.18hr [2]: 0
endo.tta.18hr [2]: 0
endo.ttl.18hr [2]: 0

Clc1ccc(Cl)c(-c2c(Cl)ccc(Cl)c2Cl)c1 [PCB 95, 2,2′,3,5′,6-pentachlorobiphenyl]
minimal effective concentration [1, 3]: 100 µM
minimal effective concentration [1, 4]: 100 µM
minimal effective concentration [1, 5]: 100 µM
minimal effective concentration [1, 6]: 100 µM
minimal effective concentration ([1]; tc, read-out: POD endo.tc.24hr): 100 µM
huvec.cyto.24hr [2]: 0.9485
huvec.mito.24hr [2]: 1
huvec.mitoint.24hr [2]: 0.5155
huvec.nma.24hr [2]: 0.5037
huvec.tc.24hr [2]: 0.9485
huvec.mtl.18hr [2]: 0.5568
huvec.tlps.18hr [2]: 0
huvec.tta.18hr [2]: 0
huvec.ttl.18hr [2]: 0
cm.amp.avg.90min [2]: 0.3275
cm.amp.cv.90min [2]: 0.6707
cm.bpm.90min [2]: 0.7438
cm.cam.90min [2]: 0.4148
cm.decay.rise.90min [2]: 0.1633
cm.mii.90min [2]: 0
cm.mito.90min [2]: 0.3775
cm.spacing.cv.90min [2]: 0.2342
cm.tc.90min [2]: 0.3895
cm.amp.avg.24hrs [2]: 0
cm.amp.cv.24hrs [2]: 0.2056
cm.bpm.24hrs [2]: 1
cm.cam.24hrs [2]: 0.3236
cm.decay.rise.24hrs [2]: 0.2316
cm.mii.24hrs [2]: 0.3974
cm.mito.24hrs [2]: 0.5198
cm.spacing.cv.24hrs [2]: 0.1862
cm.tc.24hrs [2]: 0.5603
endo.cyto.24hr [2]: 0
endo.mito.24hr [2]: 0
endo.mitoint.24hr [2]: 0
endo.nma.24hr [2]: 0
endo.tc.24hr [2]: 0
endo.mtl.18hr [2]: 0.07537
endo.tlps.18hr [2]: 0.09893
endo.tta.18hr [2]: 0.06557
endo.ttl.18hr [2]: 0.054

— PMC7377239, “Cardiovascular Effects of Polychlorinated Biphenyls and Their Major Metabolites” (Environmental Health Perspectives, 2020)
